According to PMC5352776, “Neutron activation increases activity of ruthenium-based complexes and induces cell death in glioma cells independent of p53 tumor suppressor gene” (Biometals, 2017):

Key:
[1] = system: T98 (p53 mutant) glioblastoma cells; test: MTT cytotoxic activity assay, T98 cells; type: cell-based, human; details: for Selectivity index T98: SI = IC50 MRC5/IC50 tumor cell; for IC50: 24 h exposure, MTT
Description: (§1) Malignant human Glioblastoma tumor cell lines U87 (p53 wild-type), T98 (p53 mutant) and normal cells MRC5 (Human Fetal Lung Fibroblast) were obtained from the American Type Culture Collection (ATCC, USA). The cells were maintained in Dulbecco’s Modified Eagle’s Medium (DMEM, Gibco), supplemented with 10% fetal bovine serum (FBS-Cultilab) and antibiotics (50 U/ml penicillin, […] streptomycin), at 37 °C in a humidified 5% CO2 atmosphere. For all experiments, cells were seeded at appropriate concentrations to ensure exponential growth.
(§2) The cytotoxicity of ruthenium(II) compounds was determined by measuring mitochondrial activity as a indicator of cell viability dependent on the reduction of MTT 3-(4,5-dimethylthiazol-2-yl)-2,5-diphenyl tetrazolium bromide to formazan (Mosmann [1983]). Cells (1.5 × 10^3/well) were seeded in 200 μl complete medium into 96-well microplates in triplicates. The plates were incubated at 37 °C in 5% CO2 for 24 h to allow cell adhesion, prior to drug testing. All radioactive or non-radioactive tested compounds were dissolved in sterile DMSO and diluted to reach final concentrations ranging from 1 × 10^−10 to 1 × 10^−4 mol l^−1. Cells were exposed to the compounds for a 24 h period and then, 0.5 mg ml^−1 of MTT solution was added to each well and further incubated for 4 h. The precipitated formazan crystals were dissolved in DMSO and the absorbance of produced color measured spectrophotometrically at 570 nm. The results were expressed as % viability of non-treated cell (control) versus drug concentration and the concentration that reduces cell viability by 50% (IC50) was calculated.

[2] = system: MRC5 (Human Fetal Lung Fibroblast); test: MTT cytotoxic activity assay, MRC5 normal cells; type: cell-based; details: 24 h exposure
Description: as §1, §2

[3] = system: U87 (p53 wild-type) glioblastoma cells; test: MTT cytotoxic activity assay, U87 cells; type: cell-based, human; details: for Selectivity index U87: SI = IC50 MRC5/IC50 tumor cell; for IC50: 24 h exposure, MTT
Description: as §1, §2

[4] = Radioactive (neutron activated form)
[5] = non-radioactive compounds, listed as [Ru(pic)(bipy)(dppf)]PF6
[6] = non-radioactive compounds, listed as [Ru(pic)(bipy)(dppp)]PF6
[7] = radioactive (neutron activated) compounds

Molecule	Selectivity index T98 ([1]; Non-radioactive)	IC50 ([1]; non-radioactive compounds)	IC50 ([2]; non-radioactive compounds)	Selectivity index U87 ([3]; Non-radioactive)	IC50 ([3]; non-radioactive compounds)	Selectivity index T98 [1, 4]	Selectivity index U87 [3, 4]	IC50 [1, 5]	IC50 [3, 5]	IC50 [1, 6]	IC50 [3, 6]	IC50 [1, 7]	IC50 [2, 7]	IC50 [3, 7]
N.N.[Cl][Pt][Cl] [Cisplatin, reference compound]	0.95	5.3 ± 1.9 µM	5.05 ± 0.7 µM	2.87	1.8 ± 0.2 µM									
F[P-](F)(F)(F)(F)F.O=C([O-])c1ccccn1.[Ru+2].c1ccc(-c2ccccn2)nc1.c1ccc(P(CCCCP(c2ccccc2)c2ccccc2)c2ccccc2)cc1 [[Ru(pic)(bipy)(dppb)]PF6 (1), [Ru(pic)(bipy)(dppb)]PF6]	3.45	11.9 ± 5.9 µM	41 ± 10.1 µM	2.55	16.1 ± 3.3 µM	1.14	1.63							
F[P-](F)(F)(F)(F)F.O=C([O-])c1ccccn1.[Ru+2].c1ccc(-c2ccccn2)nc1.c1ccc(P(CCP(c2ccccc2)c2ccccc2)c2ccccc2)cc1 [[Ru(pic)(bipy)(dppe)]PF6 (2), [Ru(pic)(bipy)(dppe)]PF6]	4.32	19 ± 5.9 µM	82.1 ± 9.1 µM	2.95	27.8 ± 11.7 µM	0.39	0.87							
F[P-](F)(F)(F)(F)F.O=C([O-])c1ccccn1.[Fe+2].[Ru+2].c1ccc(-c2ccccn2)nc1.c1ccc(P(c2ccccc2)[c-]2cccc2)cc1.c1ccc(P(c2ccccc2)[c-]2cccc2)cc1 [[Ru(pic)(bipy)(dppf)]PF6 (3), [Ru(pic)(bipy)(dppf)]PF6]	2.91	3 ± 0.7 µM	8.9 ± 2.3 µM	2.23	4 ± 8.5 µM	0.70	0.90	3.05 ± 0.72 µM	3.98 ± 0.85 µM					
F[P-](F)(F)(F)(F)F.O=C([O-])c1ccccn1.[Ru+2].c1ccc(-c2ccccn2)nc1.c1ccc(P(CCCP(c2ccccc2)c2ccccc2)c2ccccc2)cc1 [[Ru(pic)(bipy)(dppp)]PF6 (4), [Ru(pic)(bipy)(dppp)]PF6]	0.98	1.5 ± 0.5 µM	1.47 ± 0.6 µM	0.29	4.9 ± 2.5 µM	0.76	1.52			1.49 ± 0.5 µM	4.92 ± 2.46 µM			
[^103Ru(pic)(bipy)(dppb)]PF6 [[^103Ru(pic)(bipy)(dppb)]PF6 (1)]												0.00034 µM	0.00039 µM	0.00024 µM
[^103Ru(pic)(bipy)(dppe)]PF6 [[^103Ru(pic)(bipy)(dppe)]PF6 (2)]												0.00052 µM	0.0002 µM	0.00023 µM
[^103Ru(pic)(bipy)(dppf)]PF6 [[^103Ru(pic)(bipy)(dppf)]PF6 (3)]												0.00054 µM	0.00038 µM	0.00042 µM
[^103Ru(pic)(bipy)(dppp)]PF6 [[^103Ru(pic)(bipy)(dppp)]PF6 (4)]												0.00062 µM	0.00047 µM	0.00031 µM
